Test results as given in US20180185325A1, “12H-BENZO[b]XANTHEN-12-ONES, COMPOSITIONS CONTAINING, AND USES OF, SAME” (Thesan Pharmaceuticals, Inc., priority 2015, published 2018).

Tests used:
[1] = tested on: CYP1A1; test: EROD assay in HepG2 cells (cleavage of 7-ethoxyresorufin to resorufin); type: cell-based, human; conditions: human, probe 7-ethoxyresorufin (8 μM)
Procedure: (§1) HepG2 cells are seeded at between 1×10^4 and 2.5×10^4 cells/well in a 96-well microtitre plate. […] The formation of resorufin is quantified by fluorometry with a fluorescence plate reader. Fluorescence is determined at λex 570 nm and λem 590 nm. […] The remaining (i.e. all cells present at the beginning of analysis, since only supernatant is taken to assay EROD) live cells are subsequently utilized for the MIT cytotoxicity assay. […] The medium is carefully removed, then MIT formazan is solubilized by adding 200 μl of DMSO and subsequently mixed on a plate shaker. The absorbance is measured spectrophotometrically at 550 nm and background absorbance at 690 nm is subtracted.

[2] = tested on: HepG2 cells; test: MTT cytotoxicity assay in HepG2 cells; type: cell-based, human
Procedure: as §1

[3] = tested on: human sebocyte cells; test: MTT cytotoxicity assay in human cultured sebocytes; type: cell-based
Procedure: (§2) Cells are seeded at between 1×10^4 and 2.5×10^4 cells/well in a 96-well microtitre plate. […] The formation of resorufin is quantified by fluorometry with a fluorescence plate reader. Fluorescence is determined at λex 570 nm and […]. The amount of resorufin is calculated from a standard curve generated using 0 to 1 μM resorufin in water at 34 log dilutions. The remaining (i.e. all cells present at the beginning of analysis, since only supernatant is taken to assay EROD) live cells are subsequently utilized for the MIT cytotoxicity assay. MIT is made up in serum-free medium at 5 mg/ml. then added to the cells giving a final concentration of 10% (0.5 mg/ml MIT final) then incubated for 2 h. The medium is carefully removed, then MTT formazan is solubilized by adding 200 μl of DMSO and subsequently mixed on a plate shaker. The absorbance is measured spectrophotometrically at 550 nm and background absorbance at 690 nm is subtracted. A standard curve generated using MTT formazan (dissolved in DMSO) from 0-200 μM (0, 2, 5, 10, 20, 50, 100, 200 μM) is used to calculate the final experimental values which are then expressed as (μmol resorufin/mol MIT formazan) or as fold-induction compared to solvent.

[4] = tested on: CYP1A1 mRNA; test: CYP1A1 mRNA assay in HepG2 cells (RT-PCR); type: cell-based, human; conditions: 10 uM
Procedure: HepG2 cells (American Type Culture Collection (ATCC), Manassas, Va.) were cultured using Eagle's minimal essential medium (ATCC), supplemented with 10% fetal calf serum (Invitrogen Life Technologies). […] Cells were plated at a seeding density of 3.8×10^5 cells per well on 6-well plates (Corning Costar, NY, U.S.A.). Cells were allowed to attach for 24 h in a 37° C. humidified incubator with a 5% CO2 atmosphere. Media was replaced with that containing test agents or vehicle (0.1% dimethylsulphoxide) and cells incubated for a further 24 h. Following the 24 h incubation with test agents, media was removed and RNA prepared using the Purelink RNA mini kit (ThermoFischer, Carlsbad, Calif.). Nucleic acid concentration was determined using a Nanodrop™ spectrophotometer (ThermoScientific) by measuring the OD at 260 nm and RNA purity was evaluated using the OD 260/280 nm ratio. 1 μg RNA was reverse transcribed using SuperScript®VILO™ (ThermoFischer) with cDNA synthesis performed using the following parameters: 10 min at 25° C., 2 h at 42° C., 5 min at 85° C. (deactivation) followed by a completion temperature of 4° C. […] Each sample (1 μl) was pipetted into a 96-well optical reaction plate (Applied Biosystems, Carlsbad, Calif.). […] Results were analyzed by calculating the fold change of CYP1A1 mRNA levels normalized to 18S rRNA (ΔΔCt) in compound treated cells or tissues compared to vehicle levels.

[5] = tested on: CYP1A1 enzyme; test: EROD assay in HepG2 cells (cleavage of 7-ethoxyresorufin to resorufin); type: cell-based, human; conditions: 10 uM, 24 h
Procedure: as §1

[6] = tested on: CYP1A1 enzyme; test: EROD assay in human cultured sebocytes; type: cell-based; conditions: 10 uM, 24 h
Procedure: as §2

[7] = tested on: CYP1A1; test: EROD assay in human cultured sebocytes; type: cell-based; conditions: cultured sebocytes, probe 7-ethoxyresorufin (8 μM)
Procedure: as §2

[8] = tested on: sebaceous glands; test: Mouse ear assay for sebaceous gland prevalence; type: in vivo, C57BL/6J mice; conditions: topical 1% solution in DMSO:acetone 50:50, twice a day for five days, vs controls
Procedure: C57BL/6J male mice (Harlan Models), approximately 4-5 weeks of age, body weight 20-30 g, were acclimatized (individually housed) for 5 days in a 12 hour light/dark cycle standard laboratory environment (T=20-24° C., relative humidity 30-70%, 15-20 air changes per hour) with access to water and standard rodent chow (Harlan Tekiad 2014C supplied by Harlan Laboratories Models, S.L.) ad libitum. Animals were anesthetized with isoflurane and the test article (80 ul, 1% solution in DMSO:acetone 50:50) was administered to the outer surface of each of the ears of between 2 and 5 mice twice a day for five days by dermal application using a micropipette tip (a little volume of the solution was also applied on the inner side of the ears). All animals were monitored daily for reaction to the treatment, signs of illness, and behavioral changes. Body weights were recorded before the first administration and immediately prior to sacrifice. Approximately 12 to 16 hours after the final administration on day 5 the mice were sacrificed by i.p. injection of sodium pentobarbital (200 mg/kg) and the ears were collected. Each ear was sectioned into two halves. For each animal, one-half of one ear was fixed, in neutral phosphate-buffered 4% formaldehyde solution (4% formalin). This trimmed section of the ear was then processed, embedded in paraffin wax and stored at room temperature. […]

[9] = target: T1, Aryl Hydrocarbon Receptor (Homo sapiens, UniProt P35869); test: AhR activation luciferase reporter in Hep G2-plox-XRE TATA-Luc cells; type: cell-based; conditions: 24 h, 1-10 uM
T1 construct: endogenous in cells; host or cells: Hep G2 cells stably transduced with the lentivector plox-XRE TATA-Luc (reporter only)
T1 sequence (P35869 11-848): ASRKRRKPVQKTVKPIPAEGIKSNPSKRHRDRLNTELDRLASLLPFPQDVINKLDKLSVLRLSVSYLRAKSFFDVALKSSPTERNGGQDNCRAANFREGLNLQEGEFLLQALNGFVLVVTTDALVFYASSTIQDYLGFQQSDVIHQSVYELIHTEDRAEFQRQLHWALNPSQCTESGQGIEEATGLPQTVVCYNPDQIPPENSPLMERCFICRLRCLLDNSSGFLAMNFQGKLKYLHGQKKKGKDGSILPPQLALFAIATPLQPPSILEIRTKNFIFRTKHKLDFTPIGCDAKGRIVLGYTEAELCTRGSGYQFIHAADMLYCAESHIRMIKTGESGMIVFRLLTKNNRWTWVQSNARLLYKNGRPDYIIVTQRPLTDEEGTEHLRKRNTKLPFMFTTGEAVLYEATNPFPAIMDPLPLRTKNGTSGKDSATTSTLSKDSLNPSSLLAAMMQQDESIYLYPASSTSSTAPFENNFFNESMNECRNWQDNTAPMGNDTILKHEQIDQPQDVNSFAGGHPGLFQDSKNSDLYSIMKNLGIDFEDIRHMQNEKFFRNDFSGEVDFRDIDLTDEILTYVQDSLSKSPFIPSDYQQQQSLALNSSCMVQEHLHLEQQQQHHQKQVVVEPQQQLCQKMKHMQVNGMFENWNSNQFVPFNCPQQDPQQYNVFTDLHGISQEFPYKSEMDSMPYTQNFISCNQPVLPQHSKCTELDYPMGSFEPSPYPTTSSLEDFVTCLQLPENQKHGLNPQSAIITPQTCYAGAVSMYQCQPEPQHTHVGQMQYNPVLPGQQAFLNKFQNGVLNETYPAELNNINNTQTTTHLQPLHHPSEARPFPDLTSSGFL
Procedure: AhR activation is measured in HEP G2 cells (hepatocytes, Hep G2 is a human liver carcinoma cell line) stably transfected with the lentivector plox-XRE TATA-Luc. The Hep G2 cells are cultured in a growing media consisting of DMEM (Gibco)+10% fetal bovine serum+penicillin+streptomycin. At D0, the Hep G2 cells are seeded into 12-well plates in proportions of approximately 30,000 cells/cm^2. After 24 h, the medium is replaced with fresh medium and the cells are transduced with the lentivector plox-XRE TATA-Luc. After 48 h, the cells are subcultured and maintained in culture, and tested for their reactivity to 3-phenyl-1H-benzo[f]chromen-1-one. The tests are carried out using the luciferase reporter assay system kit from Promega. At D0, the cells are seeded at a density of approximately 60% confluence, and then treated, at D1, with the test substance diluted to various concentrations in the appropriate culture medium. At […], the cells are lysed in CLB buffer, and the lysate is clarified by centrifugation for 5 min at 10 000 g. The luciferase activity is measured in 20 microliters of lysate as recommended by the supplier, using the luminoskan luminometer (Thermo). […] Data is processed and EC50's can be calculated from standard data monitoring software.

[10] = target: T1, Aryl Hydrocarbon Receptor; test: AhR activation luciferase reporter in NHK-plox-XRE TATA-Luc cells; type: cell-based; conditions: 24 h, 1-10 uM
Procedure: AhR activation is also measured in human skin cells such as normal human keratinocytes (NHK cells) or A431 epidermoid cells stably transfected with the lentivector plox-XRE TATA-Luc. The NHK cells are cultured in a specific keratinocyte SFM medium (Gibco)+penicillin+streptomycin. At D0, the NHK cells are seeded into 6-well plates in a proportion of approximately […]. After 24 h, the medium is replaced with fresh medium and the cells are transduced with the lentivector plox-XRE TATA-Luc. After 48 h, the cells are subcultured and maintained in culture, and tested for their reactivity to 3-phenyl-1H-benzo[f]chromen-1-one. The tests are carried out using the luciferase reporter assay system kit from Promega. At D0, the cells are seeded at a density of approximately 60% confluence, and then treated, at D1, with the test substance diluted to various concentrations in the appropriate culture medium. At D2, the cells are lysed in CLB buffer, and the lysate is clarified by centrifugation for 5 min at 10 000 g. The luciferase activity is measured in 20 microliters of lysate as recommended by the supplier, using the luminoskan luminometer (Thermo). […] Data is processed and EC50's can be calculated from standard data monitoring software.

| SMILES | EC50 at 24 h [1] | Toxicity threshold ([2]; human, 24 h) | Toxicity threshold [3] | EC50 at 24 h [7] | further results |
| --- | --- | --- | --- | --- | --- |
| O=c1c2ccc(O)cc2oc2ccc3ccccc3c12 [Compound N] | 1500 nM | >30 µM | >50 µM | – | – |
| O=c1cc(-c2ccccc2)oc2ccc3ccccc3c12 [Compound D, 3-Phenyl-1H-benzo[f]chromen-1-one, reference compound] | – | – | 30 µM | – | CYP1A1 mRNA fold change from vehicle ([4]; 24 h incubation, normalized to 18S rRNA): 596 fold; % change vs. TCDD EROD (HepG2) at 10 uM [5]: 19%; Toxicity threshold ([2]; HepG2 cells, MTT): >50 µM; % change vs. TCDD EROD (Sebs) at 10 uM [6]: 17% |
| COc1ccc2oc3ccc4ccccc4c3c(=O)c2c1 [Compound K] | 500 nM | >100 µM | >50 µM | 500 nM | – |
| O=c1c2cc(O)ccc2oc2ccc3ccccc3c12 [Compound L] | 600 nM | >100 µM | >50 µM | 500 nM | – |
| O=c1c2ccccc2oc2ccc3ccccc3c12 [Compound C] | 2500 nM | >30 µM | >30 µM | 200 nM | induction of CYP1A1 mRNA (in words) [4]: potent inducer; number of differentiated sebocytes [8]: a reduction; number of sebaceous glands [8]: a clear reduction |
| COc1ccc2c(=O)c3c(ccc4ccccc43)oc2c1 [Compound M] | 3000 nM | >30 µM | 50 µM | – | – |
| O=c1cc(-c2ccccc2)oc2ccc3ccccc3c12 [3-phenyl-1H-benzo[f]chromen-1-one, 3-Phenyl-1H-benzo[f]chromen-1-one] | – | – | – | – | induction of the luciferase activity [9]: a significant induction; induction of luciferase activity [10]: a significant induction |
| O=c1c2cccc(O)c2oc2ccc3ccccc3c12 [Compound P] | 2000 nM | >100 µM | >100 µM | 200 nM | – |
| COc1cccc2c(=O)c3c(ccc4ccccc43)oc12 [Compound O] | – | >100 µM | >100 µM | – | – |
